The results in this text go back to ChEMBL document CHEMBL1201862, “PubChem BioAssay data set” (2004).

The source made the active and inactive calls. Some results are limits rather than exact numbers.

Data set [1] can be described thus: HEp-2 cell cytotoxicity, dose response, cytotoxicity control for RSV inhibitor project, HTS (AID 2410). It is filed as functional. The conditions noted are these: human respiratory syncytial virus.
Data set [2] can be described thus: Luminescence Cell-Based Dose Retest to Confirm Inhibitors of Cancer Stem Cells. [Related pubchem assays (depositor defined):AID2717, AID2721]. Type of data set: functional. The conditions noted are these: Homo sapiens.
Data set [3] can be described thus: Luminescence Cell-Based Dose Confirmation HTS to Identify Inhibitors of Platelet Dense Granule Release. [Related pubchem assays: 1663 (Primary HTS), 1678 (Summary of Project)]. Type of data set: functional.
Data set [4] deals with Luciferin 4-monooxygenase (Photinus pyralis, UniProt P08659). In words: firefly luciferase enzyme inhibitors, dose response, biochemical, luminescence (AID 1891).
The next data set concerns the target Cytochrome P450 2C19 (Homo sapiens, UniProt P33261). In words: Cytochrome panel assay with activity outcomes. Panel member name: p450-cyp2c19 Compounds with AC50 equal or less than 10 uM are considered active. Type of data set: functional.
The next data set deals with Cytochrome P450 2D6 (Homo sapiens, UniProt P10635).
The target of a further data set is Cytochrome P450 3A4 (Homo sapiens, UniProt P08684).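 Further: CYP3A4 tested as one member of a cytochrome P450 panel screen.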
The next data set concerns the target T1, Cytochrome P450 1A2 (Homo sapiens, UniProt P05177).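 Further: PubChem cytochrome P450 panel assay, CYP1A2 panel member.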
T1 sequence (P05177 whole entry): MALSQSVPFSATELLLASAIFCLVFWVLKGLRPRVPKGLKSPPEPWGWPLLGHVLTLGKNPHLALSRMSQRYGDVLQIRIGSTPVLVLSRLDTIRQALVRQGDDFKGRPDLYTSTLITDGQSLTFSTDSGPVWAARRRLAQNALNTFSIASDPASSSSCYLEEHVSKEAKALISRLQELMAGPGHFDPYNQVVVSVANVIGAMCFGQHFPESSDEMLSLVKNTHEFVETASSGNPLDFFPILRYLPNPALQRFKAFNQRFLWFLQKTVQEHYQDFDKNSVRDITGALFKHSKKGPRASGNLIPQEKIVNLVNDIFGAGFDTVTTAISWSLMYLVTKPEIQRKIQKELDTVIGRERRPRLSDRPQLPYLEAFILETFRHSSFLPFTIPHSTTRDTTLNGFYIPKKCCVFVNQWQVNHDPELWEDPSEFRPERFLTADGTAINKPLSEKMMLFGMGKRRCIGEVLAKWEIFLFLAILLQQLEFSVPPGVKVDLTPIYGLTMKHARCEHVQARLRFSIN

Data set [5] is described as follows: C. albicans growth with fluconazole, confirmation, fluorescence, retest (AID 2467). Type of data set: functional, cell-based.
A short description of data set [6]: NIH-3T3 fibroblast cytotoxicity, dose response, cytotoxicity control, cell-based, fluorescence, Alamar Blue, secondary assay (AID 2327).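 Further: NIH-3T3 mouse fibroblasts cultured with fluconazole at 8 µg/mL.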 It is filed as functional. On the technique in general: The colour change of resazurin is a common sign of viable cells or microbes.
Data set [7] can be described thus: inhibitors of intracellular T. cruzi replication, confirmation, NIH3T3 host cells, beta-gal luminescence (AID 2044).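 Further: intracellular parasites grown in NIH/3T3 mouse fibroblasts as host cells; luminescent beta-galactosidase reporter signal from transgenic T. cruzi replicating inside host cells; inhibitors lower the luminescence signal.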 Type of data set: functional, cell-based.
Data set [8] can be described thus: cytotoxicity toward NIH3T3 fibroblasts, dose response, counter-screen, cell-based, ATP luminescence, mouse fibroblasts (AID 2010).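 Further: cells exposed to compound for about 90 hours before reading.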 It is filed as functional.
The target in another data set is Cytochrome P450 2C9 (Homo sapiens, UniProt P11712).
Chain of Cytochrome P450 2C9 (P11712 whole entry): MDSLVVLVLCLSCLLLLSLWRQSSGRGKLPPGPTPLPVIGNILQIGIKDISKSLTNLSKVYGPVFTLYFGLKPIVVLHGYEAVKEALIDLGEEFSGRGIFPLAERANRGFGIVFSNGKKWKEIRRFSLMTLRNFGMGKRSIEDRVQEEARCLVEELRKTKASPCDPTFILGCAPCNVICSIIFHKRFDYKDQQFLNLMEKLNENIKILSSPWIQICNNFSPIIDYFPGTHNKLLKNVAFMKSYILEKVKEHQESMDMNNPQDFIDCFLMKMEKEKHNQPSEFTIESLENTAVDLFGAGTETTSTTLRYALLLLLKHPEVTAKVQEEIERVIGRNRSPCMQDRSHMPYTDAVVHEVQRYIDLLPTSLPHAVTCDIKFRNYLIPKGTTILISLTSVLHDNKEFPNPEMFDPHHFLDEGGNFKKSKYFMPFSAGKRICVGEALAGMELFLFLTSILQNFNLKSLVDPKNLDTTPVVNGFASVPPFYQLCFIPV

Chain of Luciferin 4-monooxygenase (P08659 whole entry): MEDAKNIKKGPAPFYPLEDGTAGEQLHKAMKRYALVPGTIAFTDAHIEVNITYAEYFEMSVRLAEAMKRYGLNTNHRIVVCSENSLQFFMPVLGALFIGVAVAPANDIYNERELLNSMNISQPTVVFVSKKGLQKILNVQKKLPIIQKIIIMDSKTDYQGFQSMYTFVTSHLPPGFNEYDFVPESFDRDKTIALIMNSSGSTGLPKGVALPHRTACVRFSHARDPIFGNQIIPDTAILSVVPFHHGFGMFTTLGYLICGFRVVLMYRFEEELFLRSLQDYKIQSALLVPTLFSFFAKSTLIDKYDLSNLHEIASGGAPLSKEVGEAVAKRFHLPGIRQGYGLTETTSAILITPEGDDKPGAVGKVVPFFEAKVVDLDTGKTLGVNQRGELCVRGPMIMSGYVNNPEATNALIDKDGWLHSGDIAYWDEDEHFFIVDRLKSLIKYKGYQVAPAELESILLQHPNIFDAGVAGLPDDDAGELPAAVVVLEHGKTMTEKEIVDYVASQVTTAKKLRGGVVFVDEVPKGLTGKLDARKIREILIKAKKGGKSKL
Chain of Cytochrome P450 2C19 (P33261 whole entry): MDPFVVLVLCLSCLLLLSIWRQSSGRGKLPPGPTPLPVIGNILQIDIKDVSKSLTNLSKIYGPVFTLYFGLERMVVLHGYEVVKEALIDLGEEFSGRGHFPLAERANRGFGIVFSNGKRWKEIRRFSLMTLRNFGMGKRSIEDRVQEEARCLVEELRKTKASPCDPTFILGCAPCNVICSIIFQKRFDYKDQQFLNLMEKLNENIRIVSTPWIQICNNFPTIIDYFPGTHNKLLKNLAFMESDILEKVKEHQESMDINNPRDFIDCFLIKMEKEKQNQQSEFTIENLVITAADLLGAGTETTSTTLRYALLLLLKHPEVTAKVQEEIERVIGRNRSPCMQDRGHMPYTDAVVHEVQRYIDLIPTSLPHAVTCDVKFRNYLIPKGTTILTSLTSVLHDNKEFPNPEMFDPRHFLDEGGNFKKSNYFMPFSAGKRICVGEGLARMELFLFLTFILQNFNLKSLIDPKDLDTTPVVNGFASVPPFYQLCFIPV
Chain of Cytochrome P450 2D6 (P10635 whole entry): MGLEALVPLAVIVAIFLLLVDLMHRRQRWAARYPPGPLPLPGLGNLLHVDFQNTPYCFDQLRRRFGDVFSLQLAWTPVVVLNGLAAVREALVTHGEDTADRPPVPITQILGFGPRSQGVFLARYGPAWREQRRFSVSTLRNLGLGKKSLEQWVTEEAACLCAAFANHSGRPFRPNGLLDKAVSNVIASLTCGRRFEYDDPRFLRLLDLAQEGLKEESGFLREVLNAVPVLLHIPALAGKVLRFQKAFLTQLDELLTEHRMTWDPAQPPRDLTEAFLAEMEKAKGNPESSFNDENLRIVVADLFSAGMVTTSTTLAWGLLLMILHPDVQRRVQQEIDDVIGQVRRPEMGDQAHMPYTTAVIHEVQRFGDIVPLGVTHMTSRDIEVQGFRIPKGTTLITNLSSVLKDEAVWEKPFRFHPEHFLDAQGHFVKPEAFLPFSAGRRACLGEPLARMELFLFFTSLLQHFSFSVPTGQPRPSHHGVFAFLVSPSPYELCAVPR
Chain of Cytochrome P450 3A4 (P08684 whole entry): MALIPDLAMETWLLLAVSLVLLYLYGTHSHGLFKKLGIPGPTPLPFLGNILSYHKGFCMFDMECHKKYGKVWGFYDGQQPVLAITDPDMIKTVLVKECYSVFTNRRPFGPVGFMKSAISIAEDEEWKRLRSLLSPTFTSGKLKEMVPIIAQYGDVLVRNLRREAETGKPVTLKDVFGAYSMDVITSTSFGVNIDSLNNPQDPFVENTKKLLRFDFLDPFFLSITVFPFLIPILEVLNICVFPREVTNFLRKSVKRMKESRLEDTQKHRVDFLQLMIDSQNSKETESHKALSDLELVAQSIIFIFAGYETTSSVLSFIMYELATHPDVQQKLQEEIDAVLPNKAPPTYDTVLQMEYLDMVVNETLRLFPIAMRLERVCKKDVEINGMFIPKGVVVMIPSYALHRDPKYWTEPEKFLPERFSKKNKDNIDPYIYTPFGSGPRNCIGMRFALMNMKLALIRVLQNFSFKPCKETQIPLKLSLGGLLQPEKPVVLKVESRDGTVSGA

For orientation: CC50 means the concentration giving 50% cytotoxicity. As to `O=C(Cn1cnc2c(cnn2-c2ccccc2)c1=O)N1CCOCC1`, the CC50 in data set [1] is 30.5 µM (active). For orientation: AC50 means the concentration at which the activity in the assay is half-maximal. On to `O=C(Cc1ccc(Cl)cc1)Nc1ccc2c(c1)C(=O)NC2=O`, for which, in [2], the AC50 is > 195 µM (inactive).

A word on the EC50: it is the concentration that produces a half-maximal response. Turning to `CCc1nnc(NC(=O)CSc2nnc(Cc3cccn3C)n2CCOC)s1`, the EC50 in data set [3] and in [4] was > 112 µM (not active) throughout.

Consider `CS(=O)(=O)N1CCC2(CCCN(c3ccccn3)C2)CC1`, for which the AC50 on Cytochrome P450 2C19 (read-out: AC50) was 15.8 µM (inconclusive); at Cytochrome P450 2D6, 25.1 µM (inconclusive); on Cytochrome P450 3A4, 15.8 µM (inconclusive); at Cytochrome P450 1A2 it was 25.1 µM (inconclusive). `C/C=C(\C)C(=O)O[C@@H]1C(C)=C2[C@H]([C@@H]1OC(=O)CCCCCCC)[C@@](C)(OC(C)=O)C[C@@H](OC(=O)CCC)[C@@]1(O)[C@H]2OC(=O)[C@]1(C)O`: the AC50 at Cytochrome P450 2D6 and on Cytochrome P450 1A2 was 39.8 µM (inconclusive) in each case.

As to `CN=C(S)Nc1ccc(C(N)=O)cc1`, the 50% effective concentration (EC50) in [3] is > 112 µM (not active). With `CNC(=S)Nc1ccc(C(N)=O)cc1`, the half-maximal effective concentration (EC50) in [4] is listed as > 112 µM (not active). Take `Cc1ccc(-c2ccc(/C=C/C(=O)c3ccccc3)o2)cc1`: in data set [1], the CC50 is 12.8 µM (active).

Take `COc1ccccc1NC(=O)COC(=O)c1ccccc1C(=O)N1CCN(c2ccccc2)CC1`: in [1], the 50% cytotoxic concentration (CC50) is 29.5 µM (active). The same measure, in the same setting: the result for `Cc1ccc2[nH]c(SCC(=O)Nc3ccc(C)c([N+](=O)[O-])c3)nc2c1` reads 25.5 µM (active). Turning to `COc1cccc(N2CCN(Cc3nc(O)c4c(-c5ccccc5)csc4n3)CC2)c1`, the AC50 in [2] was 1.08 µM (active).

`COc1ccc(-c2cn3c(C)c(C(=O)N4CCCc5ccccc54)sc3n2)cc1`: in data set [1], the cytotoxic concentration (CC50) is 13.3 µM (active). As for `CCN(CCn1cccn1)Cc1c[nH]nc1-c1cccc2ccccc12`, the concentration giving a half-maximal response (EC50) in data set [3] and in data set [4] was > 112 µM (not active) in each case. Turning to `COc1ccc(OC)c(CCNC(=O)CCc2nnc3ccc(N4CCCCC4)nn23)c1`, the EC50 in data set [3] was 52.5 µM (active); in [4] it was > 112 µM (not active).

As to `COc1ccc(NC(=O)Nc2nc3c(s2)CCCC3)cc1`, the EC50 was 8.48 µM (active) in data set [5] and > 150 µM (inactive) in data set [6].

Consider `O=C(c1ccccc1)[C@H]1[C@H](c2ccccc2[N+](=O)[O-])N1C1CCCCC1` (stereo partly drawn), for which the values for the half-maximal activity concentration (AC50) at Cytochrome P450 3A4 and on Cytochrome P450 1A2 were 3.98 µM (inconclusive) and 0.631 µM (inconclusive), respectively.

As to `Cc1ccc(-n2c(C)cc(/C(O)=C(/C([S-])=Nc3ccc(F)c(Cl)c3)[n+]3ccccc3)c2C)cc1`, the EC50 in data set [5] is > 38 µM (not active); in data set [6] it was > 160 µM (inactive).

In the case of `COc1ccc(C2NC(c3ccc(OC)cc3)C([N+](=O)[O-])C(C)(C)C2[N+](=O)[O-])cc1` (stereo not drawn), the EC50 in [3] and in data set [4] was > 112 µM (not active) in each case.

For `COCCCn1c(SCc2cccc(C(F)(F)F)c2)nc2cc(OC)c(OC)cc2c1=N`, in [2], the AC50 is 4.12 µM (active). Besides, the EC50 in [7] is 1.92 µM (active); in [8], > 60 µM (not active). `COc1cc(OC)cc(C(=O)NNC(=O)c2cc3ccccc3cc2O)c1`: the EC50 in data set [5] was > 38 µM (not active); in data set [6], > 160 µM (inactive). For `Cc1ccc(-n2c(-c3cccs3)nc3ccccc3c2=O)cc1`, the half-maximal activity concentration (AC50) in data set [2] was 2 µM (active). As to `CCOc1ccc(C(=O)Nc2ccc(Cc3ccncc3)cc2)cc1Br`, the EC50 in data set [5] is > 38 µM (not active); in data set [6] it was > 150 µM (inactive); in [7], 1.68 µM (active); in data set [8] it was > 60 µM (not active). On to `Cc1cccc(NC(=O)CC2SC(=O)N(c3ccccc3)C2=O)c1` (stereo not drawn), for which the half-maximal effective concentration (EC50) in data set [3] and in data set [4] was > 112 µM (not active) in each case. Consider `COCCN(C(=O)CC(C)(C)C)c1nnc(-c2cccnc2)s1`, for which the EC50 in data set [3] and in data set [4] was > 112 µM (not active) throughout. As for `Cc1cc(NC(=O)c2ccc3c(c2)OCO3)ccc1NC(=O)c1ccco1`, the 50% effective concentration (EC50) is 12.7 µM (active) in data set [3] and 4.06 µM (active) in data set [4]. Regarding `C[S+]([O-])c1ccccc1-c1nc(-c2cc(C(F)(F)F)cc(C(F)(F)F)c2)no1` (stereo not drawn), the AC50 on Cytochrome P450 2C19 (read-out: AC50) was 8.91 µM (inconclusive); on Cytochrome P450 2C9 it was 17.8 µM (inconclusive); at Cytochrome P450 1A2, 2.24 µM (inconclusive). `CN(C)Cc1ccccc1-c1cncnc1NCc1cccnc1`: the half-maximal activity concentration (AC50) at Cytochrome P450 1A2 was 12.6 µM (inconclusive).

Regarding `COc1cccc(CNC(=O)N[C@@H](CC(C)C)C(=O)O)c1`, the concentration for a half-maximal effect (EC50) in data set [3] and in data set [4] was > 112 µM (not active) each time. On to `O=C(/C=C/c1ccc2c(c1)OCO2)Nc1nc(-c2ccccc2)cs1`, for which the concentration at half-maximal activity (AC50) in data set [2] was 0.943 µM (active). On to `c1ccc(Cn2nnc3c(N4CCC5(CC4)OCCO5)ncnc32)cc1`, for which, in [1], the CC50 is 29.6 µM (active). Consider `Cc1c(-c2c(C#N)c(N)nc3c2CCCCCC3)cnn1C`, for which the half-maximal activity concentration (AC50) on Cytochrome P450 2C9 was 22.4 µM (inconclusive); at Cytochrome P450 1A2, 35.5 µM (inconclusive).

With `N=C(Cc1ccc(Cl)cc1Cl)NOC(=O)c1ccccc1`, the half-maximal effective concentration (EC50) in data set [5] is > 38 µM (not active); in [6], > 160 µM (inactive). `Cc1ccc(S(=O)(=O)N2[C@@H](c3ccc(C(C)(C)C)cc3)C(C(=O)O)=CC[C@H]2c2cccc(Cl)c2)cc1`: the AC50 in [2] is 2.86 µM (active).

In the case of `COc1cccc(C(=O)NCc2ccc3c(c2)cc(C)n3C)c1`, the half-maximal effective concentration (EC50) was 21.3 µM (active) in [3] and > 112 µM (not active) in data set [4]. In the case of `COCCNC(=O)C(c1ccc(C)o1)N(CCOC)C(=O)Cn1nnc2ccccc21` (stereo not drawn), the EC50 is > 38 µM (not active) in [5] and > 150 µM (inactive) in [6].

With `Cc1cccc(C)c1NC(=O)CN(C)C(=O)Cn1c(=O)cnc2ccccc21`, the EC50 in data set [3] and in [4] was > 112 µM (not active) in each case. For `CC(=O)c1cccc(NC(=O)Oc2ccccc2)c1`, the values for the concentration at half-maximal activity (AC50) result at Cytochrome P450 2C19 and on Cytochrome P450 1A2 were “inconclusive” and 28.2 µM (inconclusive), respectively.

With `CC1=C[N+](=O)c2ccccc2[N+]1=O`, the half-maximal activity concentration (AC50) on Cytochrome P450 1A2 is 6.31 µM (inconclusive). On the same count and under the same terms, the result for `CN1CCCC[C@@H]1CCN1CCCCC1` reads 0.01 µM (inconclusive). Same read-out and setting: in the case of `CCCCN(c1ccccc1)c1ncnc2c1cnn2C` it was 0.631 µM (inconclusive). The same measure, in the same setting: in the case of `Cc1nc2ccccc2cc1C[N+]12CN3CN(CN(C3)C1)C2` it was 0.631 µM (inconclusive). On to `Cn1cc(C(=O)N/N=C/C(Br)=C\c2ccccc2)ccc1=O`, for which the AC50 at Cytochrome P450 2C19 (read-out: AC50) is 28.2 µM (inconclusive); at Cytochrome P450 1A2 it was 3.55 µM (inconclusive). On to `CCc1cccc2c(-c3cs/c(=N\C)n3C)c[nH]c12`, for which the cytotoxic concentration (CC50) in data set [1] is 41.7 µM (active).
